Laboratory results as given in ChEMBL document CHEMBL5465560, “Selectivity Literature for EUbOPEN Chemogenomic Library” (2024).
Each block holds one compound with its values, some of them ahead of it.

Assays:
[1] = molecular target: T1, Tyrosine-protein kinase Mer (Homo sapiens) (UniProt Q12866); assay: Selectivity interaction (LanthaScreen Eu Kinase Binding Assay) EUB0001632a MERTK; details: at 10 µM
T1 sequence (whole entry): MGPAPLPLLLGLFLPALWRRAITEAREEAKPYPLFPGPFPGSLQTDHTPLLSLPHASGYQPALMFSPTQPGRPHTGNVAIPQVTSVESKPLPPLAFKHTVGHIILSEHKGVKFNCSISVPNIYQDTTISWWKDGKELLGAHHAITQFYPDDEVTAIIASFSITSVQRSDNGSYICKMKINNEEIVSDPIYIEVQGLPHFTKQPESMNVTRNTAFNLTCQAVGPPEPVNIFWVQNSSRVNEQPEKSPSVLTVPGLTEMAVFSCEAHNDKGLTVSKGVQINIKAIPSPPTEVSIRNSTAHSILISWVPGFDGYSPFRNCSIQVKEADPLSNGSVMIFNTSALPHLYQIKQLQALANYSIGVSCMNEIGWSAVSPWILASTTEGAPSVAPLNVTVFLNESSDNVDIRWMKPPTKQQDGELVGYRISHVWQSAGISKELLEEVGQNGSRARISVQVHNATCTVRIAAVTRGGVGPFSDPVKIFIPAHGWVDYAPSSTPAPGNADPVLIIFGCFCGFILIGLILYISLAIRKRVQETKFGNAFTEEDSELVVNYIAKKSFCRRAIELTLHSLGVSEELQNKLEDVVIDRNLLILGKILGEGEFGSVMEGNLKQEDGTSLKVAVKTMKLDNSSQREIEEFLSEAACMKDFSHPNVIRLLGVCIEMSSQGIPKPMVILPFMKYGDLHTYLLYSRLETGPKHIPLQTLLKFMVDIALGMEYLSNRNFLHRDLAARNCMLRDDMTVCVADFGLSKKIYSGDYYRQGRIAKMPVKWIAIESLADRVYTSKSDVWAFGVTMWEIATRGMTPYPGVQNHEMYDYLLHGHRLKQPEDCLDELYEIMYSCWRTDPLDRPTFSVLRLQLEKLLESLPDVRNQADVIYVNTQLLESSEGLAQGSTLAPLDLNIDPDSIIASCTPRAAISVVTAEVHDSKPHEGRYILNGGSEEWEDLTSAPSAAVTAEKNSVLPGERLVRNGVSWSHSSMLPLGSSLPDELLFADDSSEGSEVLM

[2] = tested on: Epidermal growth factor receptor (Homo sapiens), P00533 [UNDEFINED MUTATION]; assay: Selectivity interaction (LanthaScreen Eu Kinase Binding Assay) EUB0001632a EGFR; details: at 10 µM
Chain of Epidermal growth factor receptor (Homo sapiens), P00533 [UNDEFINED MUTATION] (P00533 whole entry, looked up, change not shown): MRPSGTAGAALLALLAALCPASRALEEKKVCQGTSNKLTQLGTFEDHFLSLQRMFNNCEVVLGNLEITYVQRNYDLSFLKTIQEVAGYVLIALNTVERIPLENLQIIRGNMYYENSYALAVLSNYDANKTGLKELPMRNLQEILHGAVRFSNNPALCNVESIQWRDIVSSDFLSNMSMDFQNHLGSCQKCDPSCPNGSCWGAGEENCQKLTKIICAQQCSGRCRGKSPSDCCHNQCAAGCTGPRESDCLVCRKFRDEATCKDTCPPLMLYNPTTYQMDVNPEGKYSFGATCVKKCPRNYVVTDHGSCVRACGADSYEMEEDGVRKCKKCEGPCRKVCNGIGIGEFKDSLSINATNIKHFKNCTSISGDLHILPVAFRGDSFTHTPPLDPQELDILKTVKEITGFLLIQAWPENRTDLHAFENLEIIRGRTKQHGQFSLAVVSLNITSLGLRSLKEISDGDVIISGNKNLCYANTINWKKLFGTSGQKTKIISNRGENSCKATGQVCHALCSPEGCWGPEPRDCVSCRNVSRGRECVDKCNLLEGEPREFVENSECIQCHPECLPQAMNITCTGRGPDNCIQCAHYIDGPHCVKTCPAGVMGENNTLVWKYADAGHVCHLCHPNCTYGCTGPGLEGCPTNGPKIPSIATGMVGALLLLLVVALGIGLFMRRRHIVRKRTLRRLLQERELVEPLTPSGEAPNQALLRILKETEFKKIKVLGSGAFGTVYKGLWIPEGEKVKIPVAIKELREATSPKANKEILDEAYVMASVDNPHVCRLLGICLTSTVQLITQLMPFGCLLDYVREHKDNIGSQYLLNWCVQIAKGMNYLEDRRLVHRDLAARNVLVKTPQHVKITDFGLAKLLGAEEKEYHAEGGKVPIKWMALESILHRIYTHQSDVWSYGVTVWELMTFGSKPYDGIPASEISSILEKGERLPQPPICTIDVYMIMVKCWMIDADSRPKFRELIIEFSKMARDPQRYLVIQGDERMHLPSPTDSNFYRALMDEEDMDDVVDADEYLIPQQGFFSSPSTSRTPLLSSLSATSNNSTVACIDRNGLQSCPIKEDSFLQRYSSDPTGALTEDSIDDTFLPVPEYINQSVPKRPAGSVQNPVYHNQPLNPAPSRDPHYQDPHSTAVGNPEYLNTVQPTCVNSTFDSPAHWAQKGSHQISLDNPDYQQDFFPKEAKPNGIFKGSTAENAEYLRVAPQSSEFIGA

[3] = molecular target: Phosphatidylinositol 4-phosphate 5-kinase type-1 alpha (Homo sapiens) (UniProt Q99755); assay: Selectivity interaction (KinomeScan (DiscoverX)) EUB0001868a PIP5K1A; details: at 1 µM
Chain of Phosphatidylinositol 4-phosphate 5-kinase type-1 alpha (Homo sapiens) (Q99755 whole entry): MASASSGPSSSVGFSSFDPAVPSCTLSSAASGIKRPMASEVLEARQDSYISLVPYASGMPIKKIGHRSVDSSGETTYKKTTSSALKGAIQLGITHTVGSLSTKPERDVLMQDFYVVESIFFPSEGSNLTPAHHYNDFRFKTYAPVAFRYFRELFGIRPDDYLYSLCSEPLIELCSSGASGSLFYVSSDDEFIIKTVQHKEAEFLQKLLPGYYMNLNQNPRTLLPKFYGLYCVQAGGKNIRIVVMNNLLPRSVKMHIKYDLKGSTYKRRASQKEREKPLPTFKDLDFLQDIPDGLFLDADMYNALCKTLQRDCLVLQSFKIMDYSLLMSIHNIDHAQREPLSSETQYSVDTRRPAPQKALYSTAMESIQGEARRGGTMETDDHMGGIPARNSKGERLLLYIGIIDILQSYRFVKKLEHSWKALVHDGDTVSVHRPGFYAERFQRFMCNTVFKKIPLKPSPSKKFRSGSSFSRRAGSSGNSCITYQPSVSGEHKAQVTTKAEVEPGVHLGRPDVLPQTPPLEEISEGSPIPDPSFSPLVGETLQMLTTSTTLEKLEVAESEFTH

Activated CDC42 kinase 1 = Activated CDC42 kinase 1 (Homo sapiens, UniProt Q07912); assay: Selectivity interaction (KinomeScan (DiscoverX)) EUB0000607a TNK2; details: at 10 µM
Chain of Activated CDC42 kinase 1 (Q07912 whole entry, looked up): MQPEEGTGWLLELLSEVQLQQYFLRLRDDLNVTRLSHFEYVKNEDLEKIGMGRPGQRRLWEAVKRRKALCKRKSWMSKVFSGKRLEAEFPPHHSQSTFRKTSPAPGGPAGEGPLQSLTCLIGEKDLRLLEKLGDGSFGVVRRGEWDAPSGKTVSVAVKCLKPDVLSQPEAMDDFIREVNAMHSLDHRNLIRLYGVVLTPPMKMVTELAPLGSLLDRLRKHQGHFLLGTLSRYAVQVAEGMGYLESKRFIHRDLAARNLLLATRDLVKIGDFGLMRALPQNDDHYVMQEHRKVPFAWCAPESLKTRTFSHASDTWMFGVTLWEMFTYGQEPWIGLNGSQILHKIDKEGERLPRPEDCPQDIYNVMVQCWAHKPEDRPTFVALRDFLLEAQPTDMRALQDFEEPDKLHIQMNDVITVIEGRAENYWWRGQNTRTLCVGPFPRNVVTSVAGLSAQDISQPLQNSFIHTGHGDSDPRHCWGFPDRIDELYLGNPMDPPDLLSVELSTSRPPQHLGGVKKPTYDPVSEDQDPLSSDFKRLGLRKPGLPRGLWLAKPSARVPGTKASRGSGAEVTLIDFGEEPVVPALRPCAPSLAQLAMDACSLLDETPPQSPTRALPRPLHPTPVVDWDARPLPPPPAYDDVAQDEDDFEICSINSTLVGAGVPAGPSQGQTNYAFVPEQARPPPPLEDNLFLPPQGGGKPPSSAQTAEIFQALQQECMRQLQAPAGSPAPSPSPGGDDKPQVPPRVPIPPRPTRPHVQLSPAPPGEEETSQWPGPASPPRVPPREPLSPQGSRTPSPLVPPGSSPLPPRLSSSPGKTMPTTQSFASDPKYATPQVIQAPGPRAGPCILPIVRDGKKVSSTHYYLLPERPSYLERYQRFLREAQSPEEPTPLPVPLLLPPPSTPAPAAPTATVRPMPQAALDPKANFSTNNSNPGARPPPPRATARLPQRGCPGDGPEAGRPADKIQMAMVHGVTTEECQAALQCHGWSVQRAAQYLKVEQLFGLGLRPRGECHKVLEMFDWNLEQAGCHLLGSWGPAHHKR

[4] = molecular target: T2, MAP/microtubule affinity-regulating kinase 4 (Homo sapiens) (UniProt Q96L34); assay: Selectivity interaction (ActivX KiNativ screen (kinase selectivity in THP-1 cell lysates)) EUB0000639a MARK4; type: subcellular; details: lysate, at 0.01 µM
T2 sequence (whole entry): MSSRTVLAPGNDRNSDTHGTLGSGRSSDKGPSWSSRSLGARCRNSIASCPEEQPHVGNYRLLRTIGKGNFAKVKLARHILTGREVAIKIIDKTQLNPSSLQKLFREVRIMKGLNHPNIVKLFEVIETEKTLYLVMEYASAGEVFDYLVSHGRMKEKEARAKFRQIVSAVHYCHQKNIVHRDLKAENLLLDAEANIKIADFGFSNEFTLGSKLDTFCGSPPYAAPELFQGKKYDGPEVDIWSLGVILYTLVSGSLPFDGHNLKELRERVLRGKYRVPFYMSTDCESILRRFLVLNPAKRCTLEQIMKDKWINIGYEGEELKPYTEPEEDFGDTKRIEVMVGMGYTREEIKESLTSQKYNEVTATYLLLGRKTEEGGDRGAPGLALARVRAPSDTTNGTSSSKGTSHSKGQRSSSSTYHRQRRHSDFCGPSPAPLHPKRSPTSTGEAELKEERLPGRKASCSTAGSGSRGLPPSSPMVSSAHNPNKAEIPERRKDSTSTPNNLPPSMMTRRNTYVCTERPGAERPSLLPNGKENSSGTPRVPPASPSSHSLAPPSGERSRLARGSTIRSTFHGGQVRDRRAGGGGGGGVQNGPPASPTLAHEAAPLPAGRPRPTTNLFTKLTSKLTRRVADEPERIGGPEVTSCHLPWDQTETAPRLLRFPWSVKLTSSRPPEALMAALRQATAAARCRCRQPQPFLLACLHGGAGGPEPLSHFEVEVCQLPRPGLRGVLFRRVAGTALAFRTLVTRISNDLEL

[5] = molecular target: T3, Myotonin-protein kinase (Homo sapiens) (UniProt Q09013); assay: Selectivity interaction (Kinase panel (Invitrogen)) EUB0000639a DMPK; details: at 200 nM
T3 sequence (whole entry): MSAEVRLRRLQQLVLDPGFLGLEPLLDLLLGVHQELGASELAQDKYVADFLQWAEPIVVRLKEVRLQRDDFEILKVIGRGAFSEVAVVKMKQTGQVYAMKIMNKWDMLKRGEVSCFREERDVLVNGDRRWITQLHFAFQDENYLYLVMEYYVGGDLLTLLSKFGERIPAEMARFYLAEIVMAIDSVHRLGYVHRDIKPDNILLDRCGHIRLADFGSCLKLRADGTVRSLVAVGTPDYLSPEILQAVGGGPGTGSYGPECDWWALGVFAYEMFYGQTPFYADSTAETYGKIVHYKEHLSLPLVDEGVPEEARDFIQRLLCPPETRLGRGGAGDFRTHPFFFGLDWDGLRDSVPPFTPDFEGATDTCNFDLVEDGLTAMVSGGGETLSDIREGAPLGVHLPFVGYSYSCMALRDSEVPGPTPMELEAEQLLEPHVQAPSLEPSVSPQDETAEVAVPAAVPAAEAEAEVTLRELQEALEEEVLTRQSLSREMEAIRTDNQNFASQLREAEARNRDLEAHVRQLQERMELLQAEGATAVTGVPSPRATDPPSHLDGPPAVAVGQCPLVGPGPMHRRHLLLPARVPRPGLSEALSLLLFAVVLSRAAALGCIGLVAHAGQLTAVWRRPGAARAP

[6] = molecular target: Ephrin type-A receptor 2 (Homo sapiens) (UniProt P29317); details: at 10 µM
Chain of Ephrin type-A receptor 2 (Homo sapiens) (P29317 whole entry): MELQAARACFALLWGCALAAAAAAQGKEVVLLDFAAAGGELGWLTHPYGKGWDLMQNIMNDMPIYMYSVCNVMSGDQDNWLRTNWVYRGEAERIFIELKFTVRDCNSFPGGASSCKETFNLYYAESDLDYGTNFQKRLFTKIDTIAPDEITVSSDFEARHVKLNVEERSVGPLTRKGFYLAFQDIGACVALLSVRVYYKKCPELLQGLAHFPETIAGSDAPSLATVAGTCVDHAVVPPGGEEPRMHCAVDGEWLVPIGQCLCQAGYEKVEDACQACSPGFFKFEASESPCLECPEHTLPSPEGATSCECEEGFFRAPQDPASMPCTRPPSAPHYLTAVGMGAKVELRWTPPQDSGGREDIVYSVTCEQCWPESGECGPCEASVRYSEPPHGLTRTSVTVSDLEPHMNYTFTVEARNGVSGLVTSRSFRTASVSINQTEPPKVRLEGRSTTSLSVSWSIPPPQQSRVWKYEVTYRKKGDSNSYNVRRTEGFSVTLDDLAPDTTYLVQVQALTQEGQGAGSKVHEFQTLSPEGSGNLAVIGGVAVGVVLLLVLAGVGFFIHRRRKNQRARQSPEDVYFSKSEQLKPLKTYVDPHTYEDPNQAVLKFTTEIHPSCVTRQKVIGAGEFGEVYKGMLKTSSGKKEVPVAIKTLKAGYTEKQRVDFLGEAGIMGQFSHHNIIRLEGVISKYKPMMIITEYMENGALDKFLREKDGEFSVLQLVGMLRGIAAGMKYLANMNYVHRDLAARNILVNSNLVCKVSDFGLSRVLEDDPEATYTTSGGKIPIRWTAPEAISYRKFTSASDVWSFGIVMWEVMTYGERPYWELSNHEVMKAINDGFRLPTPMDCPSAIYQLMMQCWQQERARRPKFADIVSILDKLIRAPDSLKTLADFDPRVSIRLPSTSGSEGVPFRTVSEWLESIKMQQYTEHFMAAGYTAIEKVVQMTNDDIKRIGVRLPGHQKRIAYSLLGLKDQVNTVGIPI

SMILES: CNC(=O)Nc1ccc(-c2nc(N3CC4CCC(C3)O4)c3cnn(C4CCC5(CC4)OCCO5)c3n2)cc1
% of control (Activated CDC42 kinase 1): 84%

SMILES: CC[C@@H]1[C@H](F)C(=O)N[C@@H]1COc1nccc2cc(C(N)=O)c(OC)cc12 [ZIMLOVISERTIB]
% of inhibition [4]: 9.6%
% of inhibition [5]: -0.603%

SMILES: Cc1cc([C@@H](C)Nc2ccccc2C(=O)O)c2nc(N3CCOCC3)cc(=O)n2c1 [AZD-6482]
% of control [6]: 70%

The remaining lines, values ahead:

% of inhibition [1]: -48.1%
% of inhibition [2]: -12%
SMILES: Cn1cc(-n2cnc3c(NCc4nc5cc(Cl)c(Cl)cc5[nH]4)nc(N4CCOCC4)nc32)cn1

% of control [3]: 28%
SMILES: Cc1cc(-c2ccnc(Nc3cnn(C)c3)n2)ccc1CNC(=O)N1CC(OC(C)C)C1
